PubChem BioAssay (NCI)
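Method: 48-hour compound exposure of cells in 96-well plates, five concentrations, linear interpolation of endpoints. Definition used: TGI = concentration required for complete inhibition of growth.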

Columns and labels:
Experiment in all cases: growth of human tumour cells (NCI), 48 h
SF-295 CNS = test system: SF-295 CNS
LOX IMVI melanoma = test system: LOX IMVI melanoma
MDA-MB-231 breast = test system: MDA-MB-231 breast
COLO 205 colon = test system: COLO 205 colon
KM12 colon = test system: KM12 colon
NCI-H23 lung = test system: NCI-H23 lung
NCI-H226 lung = test system: NCI-H226 lung
SW-620 colon = test system: SW-620 colon
OVCAR-4 ovarian = test system: OVCAR-4 ovarian
UO-31 renal = test system: UO-31 renal
U251 CNS = test system: U251 CNS
SK-MEL-28 melanoma = test system: SK-MEL-28 melanoma
RXF 393 renal = test system: RXF 393 renal
PC-3 prostate = test system: PC-3 prostate
NCI-H460 lung = test system: NCI-H460 lung
CAKI-1 renal = test system: CAKI-1 renal
T-47D breast = test system: T-47D breast
NCI-H522 lung = test system: NCI-H522 lung
SNB-75 CNS = test system: SNB-75 CNS
HS 578T breast = test system: HS 578T breast

Structure (SMILES) | TGI (SF-295 CNS) [µM] | TGI (LOX IMVI melanoma) [µM] | TGI (MDA-MB-231 breast) [µM] | TGI (COLO 205 colon) [µM] | TGI (KM12 colon) [µM] | TGI (NCI-H23 lung) [µM] | TGI (NCI-H226 lung) [µM] | TGI (SW-620 colon) [µM] | TGI (OVCAR-4 ovarian) [µM] | TGI (UO-31 renal) [µM] | TGI (U251 CNS) [µM] | TGI (SK-MEL-28 melanoma) [µM] | TGI (RXF 393 renal) [µM] | TGI (PC-3 prostate) [µM] | TGI (NCI-H460 lung) [µM] | TGI (CAKI-1 renal) [µM] | TGI (T-47D breast) [µM] | TGI (NCI-H522 lung) [µM] | TGI (SNB-75 CNS) [µM] | TGI (HS 578T breast) [µM]
CCOC(=O)N(CC)c1c(C(F)(F)F)cc(-c2ccccc2)[nH]c1=O | > 100 | > 100 | > 100 | > 100 | > 100 | > 100 | > 100 | > 100 | 94.8 | > 100 | > 100 | > 100 | > 100 | > 100 | > 100 | > 100 | > 100 |  |  | 
N=C(N)n1[nH]c2c(c1=O)CCC2 | > 100 | > 100 | > 100 | > 100 |  | > 100 | > 100 | > 100 | > 100 | > 100 | > 100 | > 100 | > 100 | > 100 | > 100 | > 100 |  | > 100 | > 100 | > 100
O=c1c2cc(-c3ccccc3)cnc2sn1-c1ccc([N+](=O)[O-])cc1 | > 100 |  | > 100 | > 100 | > 100 | > 100 | > 100 | > 100 | > 100 | > 100 | 95.1 | > 100 | 82.1 | > 100 | > 100 | > 100 | > 100 | 75.4 | > 100 | 
C=C1C(=O)[C@]23[C@H](O)[C@H]1CC[C@H]2[C@@]12CO[C@@]3(O)C[C@@H]1C(C)(C)CC[C@@H]2O | > 25 | 13.9 | 17.9 | 7.52 | 18.4 | > 25 | > 25 | 13.8 | > 25 | > 25 |  | 22.3 | 11.5 | > 25 |  | > 25 |  | 8.8 | > 25 | 22.2
C=CCN1CC2CN=NC2(C#N)C1 (stereo not given) | > 100 | > 100 | > 100 | > 100 | > 100 | > 100 | > 100 | > 100 | > 100 | > 100 | > 100 | > 100 | > 100 | > 100 | > 100 | > 100 | > 100 | > 100 | > 100 | 
FC1CCN(C2(c3cccs3)CCCCC2)CC1 | > 100 | > 100 | > 100 | > 100 | > 100 | > 100 | > 100 | > 100 | > 100 | > 100 | > 100 | > 100 | > 100 | > 100 | > 100 | > 100 | > 100 | > 100 | > 100 | 
CC(=O)OCC1OC(OCC2OC(N3C(=S)N[C@H]([C@@H](O)[C@H](O)[C@H](O)CO)[C@H]3O)C(OC(C)=O)C(OC(C)=O)C2OC(C)=O)C(OC(C)=O)C(OC(C)=O)C1OC(C)=O (stereo not given in full) | > 100 |  | > 100 | > 100 | > 100 | > 100 |  | > 100 | > 100 | > 100 | > 100 | > 100 | > 100 | > 100 | > 100 | > 100 | > 100 | > 100 |  | 
Brc1cccc(C2(CCCC3(c4cccc(Br)n4)OCCO3)OCCO2)n1 | > 100 | > 100 | > 100 | > 100 | > 100 | > 100 | > 100 | > 100 | > 100 | > 100 |  | > 100 | > 100 | > 100 | > 100 | > 100 | > 100 | > 100 | 84 | 
CC1CCC2c3c([nH]c4ccccc34)C3C(=O)N(C4CCCCC4)C(=O)C3C2C1 (stereo not given) | 37.5 | > 100 | 26.8 | > 100 |  | 54.2 | 36 | > 100 |  | 37.2 | 25.3 | 34.1 | 28.9 | > 100 | > 100 | 30.8 |  | > 100 | 8.51 | 57.4
Sc1nnc(-c2ccccc2Nc2ccccc2-c2nnc(S)n2-c2ccccc2)n1-c1ccccc1 | > 100 | > 100 | 89.6 | > 100 | > 100 | > 100 | > 100 | 81.9 | > 100 | > 100 | > 100 | 44.7 | > 100 | > 100 | > 100 | > 100 | 88.2 | 81.8 | 90.8 | 
NCCCCNCCCN | > 100 | > 100 | > 100 | > 100 | > 100 | > 100 | > 100 | > 100 | 37.6 | > 100 | > 100 | > 100 | > 100 | > 100 | > 100 | 3.1 | > 100 | > 100 | > 100 | 
O=C(c1ccc(Cl)cc1)N(C(=S)N1CCN(c2ccccn2)CC1)c1ccccc1 | > 100 | > 100 |  | > 100 | > 100 | > 100 | > 100 | > 100 | > 100 | > 100 | > 100 | > 100 | > 100 |  | > 100 | > 100 |  | > 100 | > 100 | 
CCCCNC(=S)/N=C/c1c(O)c2ccccc2oc1=O | > 100 | > 100 | > 100 | > 100 | > 100 | > 100 | > 100 | > 100 | > 100 | > 100 | > 100 | > 100 |  | > 100 | > 100 | > 100 | > 100 |  | > 100 | 
